Data reported in ChEMBL document CHEMBL1137836, “Identification of a potent and rapidly reversible inhibitor of the 20S-proteasome” (Bioorg Med Chem Lett, 2004).

What follows are molecules tested on Proteasome (assay: Concentration required for reversal inhibition of 20S-proteasome).
Type: subcellular

Point of comparison: `Cc1cccc(S(=O)(=O)N[C@]2(C(C)C)CCN([C@@H](CC3CCCCC3)C(=O)N[C@@H](CC(C)C)B(O)O)C2=O)c1`, IC50 8 nM. Against it:
- CC[C@H](NC(=O)[C@H](C)N1CC[C@](NC(=O)OCc2ccccc2)(C(C)C)C1=O)B(O)O — 120-fold higher, 1000 nM
- CC[C@H](NC(=O)[C@H](CC1CCCCC1)N1CC[C@](NS(=O)(=O)c2cccc(C)c2)(C(C)C)C1=O)B(O)O — 3.8-fold higher, 30 nM
- Cc1cccc(S(=O)(=O)N[C@]2(C(C)C)CCN([C@@H](CC3CCCCC3)C(=O)N[C@H](B(O)O)C(C)C)C2=O)c1 — 3.5-fold higher, 28 nM
- CC[C@H](NC(=O)[C@H](CC1CCCCC1)N1CC[C@](NC(=O)OCc2ccccc2)(C(C)C)C1=O)B(O)O — 3.8-fold higher, 30 nM
- CC[C@H](NC(=O)[C@H](Cc1ccccc1)N1CC[C@](NC(=O)OCc2ccccc2)(C(C)C)C1=O)B(O)O — 3.8-fold higher, 30 nM
